Consider 3 compounds from PMC11118615, “Cloning, Expression, Characterization and Immobilization of a Recombinant Carboxylesterase from the Halophilic Archaeon, Halobacterium salinarum NCR-1” (Biomolecules, 2024).

In this experiment the target is T1, rHsEst (recombinant carboxylesterase HsEst) (Halobacterium salinarum, UniProt Q9HPT9).
T1 construct: gene est; synthetic gene in pTA1392, N-terminal 6xHis-tag, expressed in Haloferax volcanii H1209, HisTrap purified
T1 sequence (Q9HPT9 entry or part of it): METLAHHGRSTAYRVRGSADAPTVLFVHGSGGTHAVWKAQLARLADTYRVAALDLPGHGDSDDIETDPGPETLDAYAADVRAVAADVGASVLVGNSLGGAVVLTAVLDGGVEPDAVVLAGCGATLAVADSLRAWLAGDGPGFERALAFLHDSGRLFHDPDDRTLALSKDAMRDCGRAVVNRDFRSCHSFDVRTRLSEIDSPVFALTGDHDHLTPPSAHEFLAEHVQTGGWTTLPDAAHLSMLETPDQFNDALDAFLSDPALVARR
As to the kind of experiment: spectrophotometric p-nitrophenol release, Michaelis-Menten nonlinear fit. The class given is biochemical. To be noted: free enzyme; pH 8.0 Tris-HCl, 1 M NaCl, 30 °C (methods print 25 °C). The source says: spectrophotometric p-nitrophenol release, Michaelis-Menten nonlinear fit on rHsEst (recombinant carboxylesterase HsEst)
For orientation: Km means the concentration of substrate that gives half-maximal velocity. Take `CC(=O)Oc1ccc([N+](=O)[O-])cc1` [pNPC2, p-nitrophenyl acetate]: the Km was found to be 258 ± 51 µM. Regarding `CCCCC(=O)Oc1ccc([N+](=O)[O-])cc1` [pNPC5, p-nitrophenyl valerate], the Km was determined as 78 ± 7 µM.

With `CCCCCCCC(=O)Oc1ccc([N+](=O)[O-])cc1` [pNPC8, p-nitrophenyl octanoate], the Michaelis-Menten constant (Km) came to 245 ± 26 µM.
